Peptide text beside a SMILES is read from it.
How the values were obtained:
[1] = tested on: Escherichia coli ATCC 25922; assay: Antimicrobial activity, MIC by twofold serial dilution; format: cell-based; details: purified peptide; MH broth, 18 h, 37 °C, A630; average of three independent experiments in triplicate
Source text: Lysogeny Broth (LB) was used for cultures of Acinetobacter baumannii ATCC 19606, Enterococcus faecalis ATCC 29212, Escherichia coli ATCC 25922, Klebsiella pneumoniae ATCC 13883, Pseudomonas aeruginosa ATCC 27853, and S. aureus ATCC 25923. Brain Heart Infusion (BHI) broth was used for cultures of Listeria ivanovii Li 4pVS2 and Streptococcus pyogenes ATCC 19615. Yeast peptone dextrose (YPD) medium was used for Candida species (C. albicans ATCC 90028 and C. parapsilosis ATCC 22019). MH (Mueller Hinton) broth was used for suspend centrifuged culture of bacteria and yeasts in logarithmic phase to an A630 of 0.01 (~10^6 cfu mL^−1), except for S. pyogenes, L. ivanovii, and E. faecalis that were suspended in their respective growth medium. […] A microplate reader (UVM 340, Asys Hitech) was used to monitor the antimicrobial susceptibility by measuring the change in A630. […] Each experiment was performed in triplicate with positive (0.7% formaldehyde) and negative (without peptide) inhibition controls.

P. aeruginosa ATCC 27853 = assay: SEM-FEG imaging; format: cell-based, Pseudomonas aeruginosa; details: 25 µM (MIC) and 50 µM, 1 h, 37 °C
Experimental: Bacteria in mid-logarithmic phase were collected by centrifugation ([…], 10 min, 4 °C), washed twice with PBS, and suspended in the same buffer at a density of 2 × 10^7 cfu mL^−1. […] As a negative control, cells were incubated in buffer without peptide. Microbial cells were then fixed with 2.5% glutaraldehyde, homogenized by gently inverting the tubes, and stored at 4 °C prior to SEM-FEG analysis. A Hitachi SU-70 Field Emission Gun Scanning Electron Microscope was used to record SEM-FEG images. The samples (gold plates where 20 µL of inoculum were deposited and dried under nitrogen) were fixed on an alumina SEM support with a carbon adhesive tape and were observed without metallization. In Lens Secondary electron detector (SE-Lower) was used to characterize our samples. The accelerating voltage was 1 kV and the working distance was around 15 mm. At least five to ten different locations were analyzed on each surface, leading to the observation of a minimum of 100 single cells.

SMILES: CC[C@H](C)[C@H](NC(=O)[C@H](CCCNC(=N)N)NC(=O)[C@H](Cc1ccc(O)cc1)NC(=O)CNC(=O)[C@H](Cc1ccc(O)cc1)NC(=O)[C@H](CCCNC(=N)N)NC(=O)[C@H](CC(C)C)NC(=O)[C@H](C)NC(=O)[C@H](CCC(N)=O)NC(=O)[C@H](CCC(=O)O)NC(=O)[C@@H](NC(=O)[C@H](CCC(N)=O)NC(=O)[C@H](CCCNC(=N)N)NC(=O)[C@H](CCSC)NC(=O)[C@H](Cc1ccc(O)cc1)NC(=O)[C@H](CCC(N)=O)NC(=O)[C@@H](N)CCCNC(=N)N)[C@@H](C)CC)C(=O)N[C@@H](CO)C(=O)N[C@@H](CCCNC(=N)N)C(=O)N[C@@H](CCCNC(=N)N)C(N)=O [Guavanin 2] (H-RQYMRQIEQALRYGYRISRR-NH2)
- Active concentration (MIC) [1]: 6.25 µM
- membrane effect seen in SEM-FEG images (P. aeruginosa ATCC 27853): membrane damage (deformations/indentations)

— PMC5902452, “In silico optimization of a guava antimicrobial peptide enables combinatorial exploration for peptide design” (Nature Communications, 2018)
